Measurements: the supplement of paper PMC10307832

Legend:
Assay in all cases: relative viability (nuclei count vs DMSO), 5 days (fraction); higher = more cells survive
OSI-027 + Navitoclax = compound: COc1cccc2cc(-c3nc([C@H]4CC[C@H](C(=O)O)CC4)n4ncnc(N)c34)[nH]c12 [OSI-027] + CC1(C)CCC(c2ccc(Cl)cc2)=C(CN2CCN(c3ccc(C(=O)NS(=O)(=O)c4ccc(N[C@H](CCN5CCOCC5)CSc5ccccc5)c(S(=O)(=O)C(F)(F)F)c4)cc3)CC2)C1 [Navitoclax] (partner 0.5 µM)
In short: (§1)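 Lung cancer cell lines, seeded in 1536-well plates, were treated the following day by pin tool with a single drug or with five library-drug doses (not always all listed) in √10 steps on top of a fixed anchor-drug dose. Cells were fixed and nuclei stained in one step after 5 days, and nuclei were counted. Relative viability is the nuclei count for treated wells divided by that for vehicle wells, reported as medians of duplicate plates.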

OSI-027 + Dasatinib = compound: COc1cccc2cc(-c3nc([C@H]4CC[C@H](C(=O)O)CC4)n4ncnc(N)c34)[nH]c12 [OSI-027] + Cc1nc(Nc2ncc(C(=O)Nc3c(C)cccc3Cl)s2)cc(N2CCN(CCO)CC2)n1 [Dasatinib] (partner 0.075 µM)
In short: as §1

Alpelisib + Palbociclib = compound: Cc1nc(NC(=O)N2CCC[C@H]2C(N)=O)sc1-c1ccnc(C(C)(C)C(F)(F)F)c1 [Alpelisib] + CC(=O)c1c(C)c2cnc(Nc3ccc(N4CCNCC4)cn3)nc2n(C2CCCC2)c1=O [Palbociclib] (partner 0.5 µM)
In short: as §1

Alpelisib + Phenformin = compound: Cc1nc(NC(=O)N2CCC[C@H]2C(N)=O)sc1-c1ccnc(C(C)(C)C(F)(F)F)c1 [Alpelisib] + N=C(N)NC(=N)NCCc1ccccc1 [Phenformin] (partner 250 µM)
In short: as §1

Cell Line | relative viability (OSI-027 + Navitoclax; first compound 0.01 µM) | relative viability (OSI-027 + Navitoclax; first compound 0.03162 µM) | relative viability (OSI-027 + Navitoclax; first compound 0.1 µM) | relative viability (OSI-027 + Navitoclax; first compound 0.3162 µM) | relative viability (OSI-027 + Navitoclax; first compound 1 µM) | relative viability (OSI-027 + Dasatinib; first compound 0.01 µM) | relative viability (OSI-027 + Dasatinib; first compound 0.03162 µM) | relative viability (OSI-027 + Dasatinib; first compound 0.1 µM) | relative viability (OSI-027 + Dasatinib; first compound 0.3162 µM) | relative viability (OSI-027 + Dasatinib; first compound 1 µM) | relative viability (Alpelisib + Palbociclib; first compound 0.04 µM) | relative viability (Alpelisib + Palbociclib; first compound 0.1265 µM) | relative viability (Alpelisib + Palbociclib; first compound 0.4 µM) | relative viability (Alpelisib + Palbociclib; first compound 1.265 µM) | relative viability (Alpelisib + Palbociclib; first compound 4 µM) | relative viability (Alpelisib + Phenformin; first compound 0.04 µM) | relative viability (Alpelisib + Phenformin; first compound 0.1265 µM) | relative viability (Alpelisib + Phenformin; first compound 0.4 µM) | relative viability (Alpelisib + Phenformin; first compound 1.265 µM) | relative viability (Alpelisib + Phenformin; first compound 4 µM)
LU99A | 0.754 | 0.651 | 0.695 | 0.427 | 0.154 | 0.519 | 0.513 | 0.486 | 0.293 | 0.259 | 0.374 | 0.379 | 0.363 | 0.259 | 0.22 | 0.883 | 0.843 | 0.856 | 0.709 | 0.657
LXF-289 | 1.03 | 0.973 | 1.01 | 0.921 | 0.582 | 0.175 | 0.216 | 0.198 | 0.182 | 0.102 | 0.55 | 0.562 | 0.653 | 0.534 | 0.604 | 0.482 | 0.527 | 0.513 | 0.481 | 0.482
NCI-H23 | 0.666 | 0.955 | 0.808 | 0.604 | 0.319 | 0.718 | 0.899 | 0.867 | 0.746 | 0.46 | 0.59 | 0.434 | 0.461 | 0.305 | 0.313 | 0.779 | 0.702 | 0.783 | 0.605 | 0.506
NCI-H322M | 1.24 | 1.15 | 1.17 | 0.783 | 1.27 | 0.252 | 0.236 | 0.224 | 0.233 | 0.248 | 0.47 | 0.493 | 0.453 | 0.389 | 0.309 | 0.74 | 0.674 | 0.736 | 0.558 | 0.55
NCI-H441 | 0.47 | 0.57 | 0.425 | 0.47 | 0.185 | 0.74 | 0.577 | 0.706 | 0.505 | 0.526 | 0.225 | 0.166 | 0.182 | 0.14 | 0.111 | 0.955 | 0.749 | 0.832 | 0.469 | 0.45
NCI-H460 | 1.21 | 1.06 | 1.3 | 0.789 | 0.0638 | 0.568 | 0.462 | 0.37 | 0.243 | 0.158 | 0.338 | 0.155 | 0.166 | 0.0802 | 0.114 | 0.484 | 0.526 | 0.554 | 0.447 | 0.142
NCI-H520 | 1.31 | 1.05 | 0.793 | 0.637 | 0.303 | 0.254 | 0.192 | 0.143 | 0.133 | 0.129 | 0.241 | 0.235 | 0.195 | 0.19 | 0.189 | 0.55 | 0.439 | 0.417 | 0.316 | 0.311
NCI-H647 | 1.18 | 1.11 | 1.09 | 0.994 | 0.643 | 0.126 | 0.14 | 0.157 | 0.171 | 0.071 | 0.322 | 0.447 | 0.421 | 0.289 | 0.275 | 0.396 | 0.421 | 0.53 | 0.378 | 0.359
NCI-H727 | 0.406 | 0.418 | 0.477 | 0.378 | 0.318 | 0.368 | 1.04 | 0.354 | 0.394 | 0.339 | 0.569 | 0.584 | 0.702 | 0.452 | 0.523 | 0.533 | 0.555 | 0.498 | 0.412 | 0.215
NCI-H838 | 0.981 | 0.998 | 0.853 | 0.501 | 0.276 | 0.283 | 0.276 | 0.224 | 0.227 | 0.239 | 0.246 | 0.222 | 0.24 | 0.18 | 0.182 | 0.523 | 0.507 | 0.549 | 0.41 | 0.355
NCI-H1355 | 0.84 | 0.868 | 0.855 | 0.529 | 0.205 | 0.718 | 0.564 | 0.534 | 0.409 | 0.324 | 0.403 | 0.412 | 0.377 | 0.341 | 0.267 | 0.421 | 0.404 | 0.438 | 0.433 | 0.332
NCI-H1395 | 1.16 | 0.998 | 1.03 | 0.85 | 0.79 | 0.385 | 0.398 | 0.373 | 0.341 | 0.343 | 0.634 | 0.651 | 0.649 | 0.475 | 0.589 | 0.458 | 0.395 | 0.46 | 0.374 | 0.434
NCI-H1437 | 1.12 | 1.01 | 1.14 | 1 | 0.487 | 0.421 | 0.441 | 0.32 | 0.373 | 0.192 | 0.327 | 0.314 | 0.356 | 0.264 | 0.314 | 0.326 | 0.296 | 0.291 | 0.232 | 0.215
NCI-H1650 | 1.21 | 1.47 | 1.11 | 1.29 | 0.459 | 0.313 | 0.347 | 0.255 | 0.279 | 0.229 | 0.423 | 0.275 | 0.403 | 0.29 | 0.298 | 0.405 | 0.408 | 0.43 | 0.362 | 0.308
NCI-H1651 | 1.07 | – | 0.935 | 0.836 | 0.341 | 0.405 | 0.325 | 0.352 | 0.358 | 0.213 | 0.512 | 0.514 | 0.594 | 0.483 | 0.484 | 0.369 | 0.3 | 0.33 | 0.295 | 0.275
NCI-H1666 | 0.912 | 0.878 | 0.662 | 0.575 | 0.391 | 0.825 | 0.778 | 0.732 | 0.733 | 0.463 | 0.681 | 0.606 | 0.693 | 0.571 | 0.493 | 0.557 | 0.602 | 0.576 | 0.591 | 0.564
NCI-H1734 | 0.749 | 0.836 | 0.785 | 0.746 | 0.384 | 0.473 | 0.408 | 0.45 | 0.388 | 0.282 | 0.307 | 0.282 | 0.373 | 0.263 | 0.227 | 0.376 | – | 0.349 | 0.275 | 0.23
NCI-H1755 | 1.01 | 0.968 | 0.988 | 0.753 | 0.279 | 0.392 | 0.458 | 0.39 | 0.42 | 0.229 | 0.417 | 0.41 | 0.458 | 0.371 | 0.382 | 0.653 | 0.601 | 0.68 | 0.574 | 0.433
NCI-H1792 | 0.417 | 0.458 | 0.556 | 0.572 | 0.43 | 0.664 | 0.617 | 0.818 | 0.7 | 0.211 | 0.631 | 0.62 | 0.658 | 0.508 | 0.321 | 0.593 | 0.262 | 0.291 | 0.0902 | 0.0842
NCI-H1793 | 0.399 | 0.387 | 0.407 | 0.318 | 0.223 | 0.352 | 0.391 | 0.389 | 0.279 | 0.193 | 0.367 | 0.287 | 0.332 | 0.324 | 0.245 | 0.365 | 0.322 | 0.365 | 0.301 | 0.238
NCI-H1915 | 0.831 | 0.779 | 0.809 | 0.801 | 0.85 | 0.289 | 0.307 | 0.279 | 0.24 | 0.145 | 0.555 | 0.531 | 0.573 | 0.474 | 0.471 | 0.361 | 0.378 | 0.389 | 0.346 | 0.347
NCI-H1944 | 1.1 | 1.04 | 1.03 | 0.963 | 0.719 | 0.192 | 0.204 | 0.191 | 0.178 | 0.162 | 0.303 | 0.302 | 0.345 | 0.241 | 0.221 | 0.194 | 0.214 | 0.182 | 0.16 | 0.138
NCI-H1975 | 1.19 | 1.11 | 1.16 | 1.02 | 0.508 | 0.309 | 0.362 | 0.334 | 0.301 | 0.316 | 0.628 | 0.552 | 0.597 | 0.323 | 0.319 | 0.417 | 0.41 | 0.387 | 0.298 | 0.208
NCI-H1993 | 0.89 | 0.863 | 0.659 | 0.502 | 0.719 | 0.516 | 0.543 | 0.469 | 0.541 | 0.549 | 0.549 | 0.637 | 0.647 | 0.501 | 0.465 | 0.501 | 0.534 | 0.443 | 0.539 | 0.507
NCI-H2009 | 1.16 | 1.15 | 1.07 | 1.07 | 0.619 | 0.271 | 0.264 | 0.248 | 0.213 | 0.207 | 0.235 | 0.23 | 0.245 | 0.215 | 0.164 | 0.502 | 0.458 | 0.555 | 0.456 | 0.468
NCI-H2023 | 0.982 | 0.99 | 0.964 | 0.708 | 0.255 | 0.588 | 0.621 | 0.505 | 0.338 | 0.192 | 0.312 | 0.309 | 0.326 | 0.258 | 0.223 | 0.404 | 0.408 | 0.371 | 0.287 | 0.282
